Reference: patent US12016336B2 (priority 2020, dated 2024)
Counter-ions that a name gives are not always drawn. Like-named read-outs stand apart in the source and are kept apart here.

What was measured:
corn = assay: Growth of corn in pots exposed to dibutyldithiophosphate (Example 20); type: in vivo; conditions: 4 weeks
Method: Corn was planted in 6″ TEKU pots. The pots were packed finger tight with potting mix #4 from Beautiful Land Products. The corn seeds were planted approximately 1.5 inches deep. Fifty seeds of corn were planted for every loading of dibutyldithiophosphate ammonium salt. After the seeds were added to the soil the dibutyldithiophosphate ammonium salt was added as a fully dissolved aqueous solution. Tap water (500 mL) was added to a measured amount of the salt to yield desired amount in 10 mL After mixing well for 10 minutes, the aqueous solution was added to each plant via syringe (10 mL) immediately around and on the seed. After adding the salt, the plants were moved outside in full sunlight until harvest. The corn plants were watered daily.
The corn was harvested after 4 weeks. Plant height was taken by straightening the corn plant out by the leaves and measuring from the base of the shoot to the longest point on the leaf. After removing the roots, the weight of the shoot and leaves was measured using a balance.
Statistical analysis was performed using IBM SPSS Statistics 25. Non-parametric Kruskal-Wallis test was performed to determine significance. Data represented are mean±standard error with ** indicating α<0.05 and * indicating α<0.1.

soybeans = assay: Field trial: harvest yield of soybeans (Example 27); type: in vivo; conditions: 2 kg per acre, side dressing, versus not exposed
From the text: All essential plant nurtients (N, P, K, and S) were applied in non-limiting amounts. Prior to planting soybeans, the fields were fertilized with 60 lb acre of P2O5, 80 lb per acre of K20, and 20 lb per acre of sulfur. The soybean seeds were a 2.8-3.2 relative maturity planted at 120,000 to 140,000 seeds per acre. All field management were designed to effectively control weed and insect pests to optimize soybean growth and yield. The soybeans were planted and either 0, 0.5, 1.0, or 2.0 kg per acre of dibutyldithiophosphate was applied as a side dressing to the soybean plants. The dibutyldithiophosphate was dissolved in water and applied. The harvest weight was determined for each plot and corrected for slight differences in moisture content.

[1] = type: physicochemical
[2] = tested on: radish, peas, and lettuce plants; conditions: Carter et al., cited from earlier work
people = conditions: exposure in the air; cited from earlier work
[3] = type: physicochemical; remark: listed apart in the source
[4] = room temperature, 90% H2O/D2O
[5] = type: physicochemical; remark: listed apart in the source
Solubility in water = type: physicochemical
[6] = water buffered at pH 6.7, FIG. 4

CCCCOP(=S)(S)OCCCC [dibutyldithiophosphate]
Increase in weight of the corn plants (corn; 1 mg added to the soil adjacent to the seed, versus plants grown without): 39%
Weight of the corn plants (significance) (corn; 1, 10, 50, and 75 mg loadings): statistically significant improvements
Heights of the corn plants (corn; all loadings): Little statistically significant difference
Increase in harvest yield of soybeans (soybeans): 4.4%

S=P1(S)OCCS1 (stereo not drawn) [Example 14]
Release of H2S (rank among the dithiophosphates) ([1]; pH 6.7): highest

C1COCCN1.COc1ccc(P(=S)(S)N2CCOCC2)cc1 (stereo not drawn) [GYY-4137]
Growth of radish, peas, and lettuce plants [2]: increased the growth
Harvest yield of radishes ([2]; milligram loadings): doubled

S [Example H2S, hydrogen sulfide]
Level immediately dangerous to life and health (people): 100 ppm

CC(C)(C)OP(=S)([S-])OC(C)(C)C.[Na+] [Example 8, Di(Tert-Butanol)Dithiophosphate Sodium Salt]
Release of H2S (rank among the dithiophosphates) [1, 6]: highest
ΔΔG^‡ ([3]; 25° C. versus 85° C.): 0.526 kcal/mol
ΔH^‡ ([3]; rate constants measured from 25 to 85° C.): 27.84 kcal/mol
Percent degraded at day 12 ([4]; day 12): 62%
Percent degraded at day 20 ([4]; day 20): 88%
Rate of hydrolysis slower at room temperature than at 85° C. ([5]; room temperature versus 85° C.): 2,600 ×
Rate of first-step of hydrolysis ([5]; room temperature, 90% H2O/D2O): 0.0051 h⁻¹

CCCCOP(=S)(S)OCCCC [Example 1, Dibutyldithiophosphate Ammonium Salt]
Release of H2S (rank among the dithiophosphates) [1, 6]: lowest
Percent Degradation ([4]; 30 days, 31P NMR): <3%
Rate of first-step of hydrolysis (85° C.) ([5]; 85° C., 90% H2O/D2O): 0.00096 h⁻¹
Time to complete hydrolysis ([5]; 85° C., 90% H2O/D2O, to phosphoric acid only): 180 days
Hydrolysis slower than the compound of Example 2 ([5]; 85° C., versus Example 2): 3.5 ×
Hydrolysis slower than the dithiophosphate of Example 3 ([5]; 85° C., versus Example 3): 7.4 ×
Hydrolysis slower than the dithiophosphate of Example 4 ([5]; 85° C., versus Example 4): 1.4 ×

CC1(C)[C@@H]2CC[C@]1(C)[C@H](OP(=S)(S)O[C@@H]1C[C@H]3CC[C@@]1(C)C3(C)C)C2 [Example 7]
Solubility in water of the potassium and triethylamine salts (Solubility in water): insoluble in water

CC(C)[C@@H]1CC[C@@H](C)C[C@H]1OP(=S)([S-])O[C@@H]1C[C@H](C)CC[C@H]1C(C)C.[K+] [Example 5]
Release of H2S at 5 mM ([1]; pH 6.7): released H2S
Solubility in water at 5 mM (Solubility in water; concentration of 5 mM): mostly insoluble in water
Solubility in water of the potassium and triethylamine salts (Solubility in water): insoluble in water

S=P(S)(Sc1ccccc1)Sc1ccccc1 [Example 13]
Solubility in water of the potassium and triethylamine salts (Solubility in water): insoluble in water
